Each block holds one compound with its values, some of them ahead of it. The source made the active and inactive calls. The calls are words filed in the database; no cut-off is given here. Non-standard residues stand in square brackets, D forms with d. Residues, ends and D or L forms follow the SMILES beside them. *: point of attachment. NMeW = CN[C@@H](Cc1c[nH]c2ccccc12)C(=O)O; Phe(4-F) = N[C@@H](Cc1ccc(F)cc1)C(=O)O; NMeY = CN[C@@H](Cc1ccc(O)cc1)C(=O)O; Acetyl(2-thienyl) = O=C(Cc1cccs1)*; NMeF = CN[C@@H](Cc1ccccc1)C(=O)O; hArg = N=C(N)NCCCC[C@H](N)C(=O)O; αMeF = C[C@](N)(Cc1ccccc1)C(=O)O; Tic = O=C(O)[C@@H]1Cc2ccccc2CN1; NMeN = CN[C@@H](CC(N)=O)C(=O)O; NMeL = CN[C@@H](CC(C)C)C(=O)O; Pip = O=C(O)[C@@H]1CCCCN1
How the values were obtained:
[1] = target: T1, Neuromedin-U receptor 1 (Homo sapiens) (UniProt Q9HB89); test: Antagonist activity at human NMUR1 stably expressed in CHO cells by Fluo-4 AM dye based calcium mobilization assay; type: functional, cell-based; conditions: dose 30-300 nM
T1 sequence (whole entry): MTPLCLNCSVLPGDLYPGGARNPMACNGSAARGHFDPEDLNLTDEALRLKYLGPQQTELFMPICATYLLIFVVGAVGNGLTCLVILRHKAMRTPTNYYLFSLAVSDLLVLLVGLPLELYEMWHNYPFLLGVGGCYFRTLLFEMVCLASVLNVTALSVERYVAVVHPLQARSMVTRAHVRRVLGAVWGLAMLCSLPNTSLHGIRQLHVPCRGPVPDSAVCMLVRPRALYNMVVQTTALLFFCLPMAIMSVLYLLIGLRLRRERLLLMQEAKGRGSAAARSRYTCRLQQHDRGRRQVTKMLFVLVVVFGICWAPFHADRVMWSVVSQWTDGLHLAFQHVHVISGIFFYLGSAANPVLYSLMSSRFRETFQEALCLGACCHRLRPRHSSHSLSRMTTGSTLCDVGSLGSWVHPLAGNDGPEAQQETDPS

Neuromedin-U receptor 2 [2] = target: T2, Neuromedin-U receptor 2 (Homo sapiens, UniProt Q9GZQ4); test: Antagonist activity at human NMUR2 stably expressed in CHO cells by Fluo-4 AM dye based calcium mobilization assay; type: functional, cell-based; conditions: filed as antagonist, dose 30-300 nM
T2 sequence (Q9GZQ4 whole entry): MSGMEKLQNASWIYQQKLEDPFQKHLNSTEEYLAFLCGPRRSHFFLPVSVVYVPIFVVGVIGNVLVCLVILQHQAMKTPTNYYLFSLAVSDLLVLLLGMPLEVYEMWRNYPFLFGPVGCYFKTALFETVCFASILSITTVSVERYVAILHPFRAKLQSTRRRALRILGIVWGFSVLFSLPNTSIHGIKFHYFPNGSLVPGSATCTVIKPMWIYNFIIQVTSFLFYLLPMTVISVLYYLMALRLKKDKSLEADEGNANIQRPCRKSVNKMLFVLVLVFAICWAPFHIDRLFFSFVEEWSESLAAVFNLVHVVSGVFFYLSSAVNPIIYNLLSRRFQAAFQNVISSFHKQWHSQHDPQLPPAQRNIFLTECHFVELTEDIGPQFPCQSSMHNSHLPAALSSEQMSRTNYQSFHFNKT

Homo sapiens = species: Homo sapiens; test: Selectivity ratio of human NMUR2 to human NMUR1
[3] = Retention time in human serum measured at 40 min by RP-HPLC analysis; type: ADME, cell-free
Neuromedin-U receptor 1 = target: T3, Neuromedin-U receptor 1 (Homo sapiens, UniProt Q9HB89); test: Antagonist potency at human NMUR1 stably expressed in CHO cells by Fluo-4 AM dye based calcium mobilization assay; type: functional, cell-based; conditions: read-out: pA2 (converted)
T3 sequence (Q9HB89 whole entry): T1 sequence (whole entry)

[4] = Drug degradation in human serum assessed as half life by RP-HPLC analysis; type: ADME, cell-free
[5] = Stability in human plasma assessed drug recovery measured at 120 mins by RP-HPLC analysis; type: ADME, cell-free; conditions: read-out: Drug recovery
[6] = target: T4, Neuromedin-U receptor 1 (Mus musculus) (UniProt O55040); test: Antagonist activity at mouse NMUR1 expressed in HEK293 cells by Fluo-4 AM dye based calcium mobilization assay; type: functional, cell-based
T4 sequence (whole entry): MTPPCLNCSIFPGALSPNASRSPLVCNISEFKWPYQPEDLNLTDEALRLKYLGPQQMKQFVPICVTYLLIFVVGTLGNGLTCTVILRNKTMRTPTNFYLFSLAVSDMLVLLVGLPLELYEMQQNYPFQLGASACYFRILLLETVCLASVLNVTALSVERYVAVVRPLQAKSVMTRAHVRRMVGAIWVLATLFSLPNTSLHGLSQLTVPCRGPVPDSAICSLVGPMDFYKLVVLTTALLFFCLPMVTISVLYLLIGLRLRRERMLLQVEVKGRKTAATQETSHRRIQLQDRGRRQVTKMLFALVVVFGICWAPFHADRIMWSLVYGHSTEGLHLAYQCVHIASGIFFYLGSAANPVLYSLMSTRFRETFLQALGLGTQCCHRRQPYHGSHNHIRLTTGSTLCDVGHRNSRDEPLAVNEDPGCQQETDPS

[7] = Drug degradation in human serum assessed as drug recovery incubated for 15 mins in presence of argatroban by RP-HPLC analysis; type: ADME, cell-free; conditions: with argatroban, read-out: Drug recovery
[8] = target: Neuromedin-U receptor 2 (Mus musculus) (UniProt Q8BZ39); test: Antagonist activity at mouse NMUR2 expressed in HEK293 cells by Fluo-4 AM dye based calcium mobilization assay; type: functional, cell-based
Neuromedin-U receptor 2 (Mus musculus), sequence (Q8BZ39 whole entry): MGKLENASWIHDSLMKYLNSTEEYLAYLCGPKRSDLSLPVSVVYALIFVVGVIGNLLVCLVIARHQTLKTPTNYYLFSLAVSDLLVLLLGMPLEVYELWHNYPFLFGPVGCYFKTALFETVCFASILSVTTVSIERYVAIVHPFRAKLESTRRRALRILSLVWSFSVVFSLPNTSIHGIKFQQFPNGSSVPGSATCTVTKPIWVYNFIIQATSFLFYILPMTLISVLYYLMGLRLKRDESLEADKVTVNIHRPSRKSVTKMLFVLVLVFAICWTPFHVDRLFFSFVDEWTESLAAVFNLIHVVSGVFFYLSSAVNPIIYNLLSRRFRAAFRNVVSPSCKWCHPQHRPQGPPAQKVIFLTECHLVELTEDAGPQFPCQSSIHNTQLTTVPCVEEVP

[9] = Drug degradation in human serum assessed as drug recovery incubated for 15 mins in presence of aprotinin by RP-HPLC analysis; type: ADME, cell-free; conditions: 0.25 h
[10] = Drug degradation in rat serum by RP-HPLC analysis; type: ADME, cell-free
Neuromedin-U receptor 2 [11] = target: T2, Neuromedin-U receptor 2; test: Binding affinity to human NMUR2 assessed as equilibrium binding constant; conditions: filed as antagonist
[12] = target: T1, Neuromedin-U receptor 1 (Homo sapiens); test: Binding affinity to human NMUR1 assessed as equilibrium binding constant; conditions: filed as antagonist
Neuromedin-U receptor 2 [13] = target: T2, Neuromedin-U receptor 2; test: Antagonist potency at human NMUR2 stably expressed in CHO cells by Fluo-4 AM dye based calcium mobilization assay; type: functional, cell-based; conditions: read-out: pA2 (converted)
[14] = Drug metabolism in rat serum assessed as (2S)-5-guanidino-2-[[(2S)-1-[(2S)-5-guanidino-2-[[(2S)-2-[[(2S)-3-(1H-indol-3-yl)-2-[methyl-[2-(2-thienyl)acetyl]amino]propanoyl]amino]-2-methyl-3-phenyl-propanoyl]amino]pentanoyl]pyrrolidine-2-carbonyl]amino]pentanoic acid formation by RP-HPLC analysis; type: ADME, cell-free
[15] = target: T1, Neuromedin-U receptor 1 (Homo sapiens); test: Antagonist activity at human NMUR1 stably expressed in CHO cells at 100 to 1000 nM by Fluo-4 AM dye based calcium mobilization assay; type: functional, cell-based; conditions: filed as antagonist, dose 100-1000 nM

Activity ([1]; filed as antagonist): Active
Structure (SMILES): CN(C(=O)Cc1cccs1)[C@@H](Cc1ccc(O)cc1)C(=O)N[C@@H](Cc1ccccc1)C(=O)N[C@@H](CCCNC(=N)N)C(=O)N1CCC[C@H]1C(=O)N[C@@H](CCCNC(=N)N)C(=O)N[C@@H](CC(N)=O)C(N)=O ({Acetyl(2-thienyl)}-[NMeY]FRPRN-NH2)

Activity ([1]; filed as antagonist): Active
Activity (Neuromedin-U receptor 2 [2]): Active
Structure (SMILES): CN(C(=O)Cc1cccs1)[C@@H](Cc1c[nH]c2ccccc12)C(=O)N[C@@H](Cc1ccccc1)C(=O)N[C@@H](CCCNC(=N)N)C(=O)N1CCC[C@H]1C(N)=O ({Acetyl(2-thienyl)}-[NMeW]FRP-NH2)

Activity ([1]; filed as antagonist): Active
Selectivity ratio (Homo sapiens): 2.1
Structure (SMILES): CN(C(=O)Cc1cccs1)[C@@H](Cc1c[nH]c2ccccc12)C(=O)N[C@@H](Cc1ccccc1)C(=O)N[C@@H](CCCNC(=N)N)C(=O)N1CCC[C@H]1C(=O)N[C@@H](CCCNC(=N)N)C(N)=O ({Acetyl(2-thienyl)}-[NMeW]FRPR-NH2)

Activity ([1]; filed as antagonist): Active
Structure (SMILES): CN(C(=O)Cc1cccs1)[C@@H](Cc1ccccc1)C(=O)N[C@@H](Cc1ccccc1)C(=O)N[C@@H](CCCNC(=N)N)C(=O)N1CCC[C@H]1C(=O)N[C@@H](CCCNC(=N)N)C(=O)N[C@@H](CC(N)=O)C(N)=O ({Acetyl(2-thienyl)}-[NMeF]FRPRN-NH2)

Activity ([1]; filed as antagonist): Active
Structure (SMILES): CN(C(=O)Cc1cccs1)[C@@H](Cc1c[nH]c2ccccc12)C(=O)N[C@@H](Cc1c[nH]c2ccccc12)C(=O)N[C@@H](CCCNC(=N)N)C(=O)N1CCC[C@H]1C(=O)N[C@@H](CCCNC(=N)N)C(=O)N[C@@H](CC(N)=O)C(N)=O ({Acetyl(2-thienyl)}-[NMeW]WRPRN-NH2)

Activity ([1]; filed as antagonist): Active
Structure (SMILES): CN(C(=O)Cc1cccs1)[C@@H](Cc1c[nH]c2ccccc12)C(=O)N[C@@H](Cc1ccccc1)C(=O)N[C@@H](CCCNC(=N)N)C(=O)N1CCCC[C@H]1C(=O)N[C@@H](CCCNC(=N)N)C(=O)N[C@@H](CC(N)=O)C(N)=O ({Acetyl(2-thienyl)}-[NMeW]FR[Pip]RN-NH2)

Activity ([1]; filed as antagonist): Active
Structure (SMILES): CN(C(=O)Cc1cccs1)[C@@H](Cc1c[nH]c2ccccc12)C(=O)N[C@@H](Cc1ccccc1)C(=O)N[C@@H](CCCNC(=N)N)C(=O)N1CCC[C@H]1C(=O)N[C@@H](CCCNC(=N)N)C(=O)N[C@@H](CCC(N)=O)C(N)=O ({Acetyl(2-thienyl)}-[NMeW]FRPRQ-NH2)

Activity ([1]; filed as antagonist): Active
Structure (SMILES): CN(C(=O)Cc1cccs1)[C@@H](Cc1c[nH]c2ccccc12)C(=O)N[C@@H](Cc1ccccc1)C(=O)N[C@@H](CCCNC(=N)N)C(=O)N1CCC[C@H]1C(=O)N[C@@H](CCCNC(=N)N)C(=O)N[C@@H](CC(N)=O)C(N)=O ({Acetyl(2-thienyl)}-[NMeW]FRPRN-NH2)

Activity ([1]; filed as antagonist): Active
Structure (SMILES): CC(C)C[C@@H](C(=O)N[C@@H](Cc1ccccc1)C(=O)N[C@@H](CCCNC(=N)N)C(=O)N1CCC[C@H]1C(=O)N[C@@H](CCCNC(=N)N)C(=O)N[C@@H](CC(N)=O)C(N)=O)N(C)C(=O)Cc1cccs1 ({Acetyl(2-thienyl)}-[NMeL]FRPRN-NH2)

Activity ([1]; filed as antagonist): Dose-Dependent Effect
Retention_time [3]: 48.27 min
Kb (Neuromedin-U receptor 1): 44.7 nM
half-life [4]: 5 min
remaining at 2 h [5]: 96.7%
Activity [6]: inactive
remaining at 0.25 h [7]: 97%
Activity [8]: inactive
Stability [9]: Stable
Stability [10]: Unstable
Kb (Neuromedin-U receptor 2 [11]): 421 nM
Activity (Neuromedin-U receptor 2 [2]): Dose-Dependent Effect
Kb [12]: 45 nM
Kb (Neuromedin-U receptor 2 [13]): 417 nM
Selectivity ratio (Homo sapiens): 2.3
Drug metabolism [14]: Metabolite_Detected
Structure (SMILES): CN(C(=O)Cc1cccs1)[C@@H](Cc1c[nH]c2ccccc12)C(=O)N[C@@](C)(Cc1ccccc1)C(=O)N[C@@H](CCCNC(=N)N)C(=O)N1CCC[C@H]1C(=O)N[C@@H](CCCNC(=N)N)C(N)=O ({Acetyl(2-thienyl)}-[NMeW][αMeF]RPR-NH2)

Activity ([1]; filed as antagonist): Active
Activity (Neuromedin-U receptor 2 [2]): Active
Structure (SMILES): CN(C(=O)Cc1cccs1)[C@@H](Cc1c[nH]c2ccccc12)C(=O)N[C@@H](Cc1ccccc1)C(=O)N[C@@H](CCCNC(=N)N)C(=O)N1CCC[C@H]1C(=O)N[C@@H](CCCNC(=N)N)C(=O)O ({Acetyl(2-thienyl)}-[NMeW]FRPR-OH)

Activity ([1]; filed as antagonist): Active
Structure (SMILES): CN(C(=O)Cc1cccs1)[C@@H](Cc1c[nH]c2ccccc12)C(=O)N[C@@H](Cc1ccccc1)C(=O)N[C@@H](CCCNC(=N)N)C(=O)N1CCC[C@H]1C(=O)N[C@@H](CCCNC(=N)N)C(=O)N[C@@H](CC(N)=O)C(=O)O ({Acetyl(2-thienyl)}-[NMeW]FRPRN-OH)

Activity ([1]; filed as antagonist): Active
Structure (SMILES): CN(C(=O)Cc1cccs1)[C@@H](CC(N)=O)C(=O)N[C@@H](Cc1ccccc1)C(=O)N[C@@H](CCCNC(=N)N)C(=O)N1CCC[C@H]1C(=O)N[C@@H](CCCNC(=N)N)C(=O)N[C@@H](CC(N)=O)C(N)=O ({Acetyl(2-thienyl)}-[NMeN]FRPRN-NH2)

Activity [1]: inactive
Structure (SMILES): CN(C(=O)Cc1cccs1)[C@@H](Cc1c[nH]c2ccccc12)C(=O)N[C@@H](Cc1ccccc1)C(=O)N[C@@H](CCCNC(=N)N)C(=O)N1CCC[C@H]1C(=O)N[C@@H](CCCCN)C(=O)N[C@@H](CC(N)=O)C(N)=O ({Acetyl(2-thienyl)}-[NMeW]FRPKN-NH2)

Activity ([1]; filed as antagonist): Active
Activity (Neuromedin-U receptor 2 [2]): Active
Structure (SMILES): CN(C(=O)Cc1cccs1)[C@@H](Cc1c[nH]c2ccccc12)C(=O)N[C@@H](Cc1ccccc1)C(=O)N[C@@H](CCCNC(=N)N)C(=O)N1CCC[C@H]1C(=O)N[C@@H](CCCCNC(=N)N)C(N)=O ({Acetyl(2-thienyl)}-[NMeW]FRP[hArg]-NH2)

Activity ([1]; filed as antagonist): Active
Structure (SMILES): CC(C)C[C@H](NC(=O)[C@H](Cc1c[nH]c2ccccc12)N(C)C(=O)Cc1cccs1)C(=O)N[C@@H](CCCNC(=N)N)C(=O)N1CCC[C@H]1C(=O)N[C@@H](CCCNC(=N)N)C(=O)N[C@@H](CC(N)=O)C(N)=O ({Acetyl(2-thienyl)}-[NMeW]LRPRN-NH2)

Activity ([1]; filed as antagonist): Active
Kb (Neuromedin-U receptor 1): 6.46 nM
half-life [4]: 1.9 min
Activity [15]: Active
Activity [6]: inactive
Activity [8]: inactive
Kb (Neuromedin-U receptor 2 [11]): 41 nM
Activity (Neuromedin-U receptor 2 [2]): Active
Kb [12]: 6.4 nM
Kb (Neuromedin-U receptor 2 [13]): 41.7 nM
Structure (SMILES): CN(C(=O)Cc1cccs1)[C@@H](Cc1c[nH]c2ccccc12)C(=O)N[C@@H](Cc1ccc(F)cc1)C(=O)N[C@@H](CCCNC(=N)N)C(=O)N1CCC[C@H]1C(=O)N[C@@H](CCCNC(=N)N)C(N)=O ({Acetyl(2-thienyl)}-[NMeW][Phe(4-F)]RPR-NH2)

Selectivity ratio (Homo sapiens): 2
Structure (SMILES): CN(C(=O)Cc1cccs1)[C@@H](Cc1c[nH]c2ccccc12)C(=O)N1Cc2ccccc2C[C@H]1C(=O)N[C@@H](CCCNC(=N)N)C(=O)N1CCC[C@H]1C(=O)N[C@@H](CCCNC(=N)N)C(N)=O ({Acetyl(2-thienyl)}-[NMeW][Tic]RPR-NH2)

Activity ([1]; filed as antagonist): Active
Structure (SMILES): CN(C(=O)Cc1cccs1)[C@@H](Cc1c[nH]c2ccccc12)C(=O)N[C@@H](Cc1ccccc1)C(=O)N[C@@H](CCCNC(=N)N)C(=O)N1CCC[C@H]1C(=O)N[C@@H](CCCNC(=N)N)C(=O)N[C@@H](CC(=O)O)C(N)=O ({Acetyl(2-thienyl)}-[NMeW]FRPRD-NH2)

From ChEMBL document CHEMBL5532743, “Discovery of a Pentapeptide Antagonist to Human Neuromedin U Receptor 1” (ACS Med Chem Lett, 2024)
